In patent publication US20180155386A1, “PROGESTERONE ANTAGONISTS” (Evestra, Inc., priority 2011, published 2018):

Assays:
[1] = system: human breast cancer cell line T47D; assay: In vitro antiproliferative activity in human breast cancer cell line T47D (MTT); format: cell-based; conditions: 168 h, T47D cells, 7 days after cell seeding
Method: Cells from frozen stock were expanded in T75 cell culture flasks. For the experiment, cells in the logarithmic growth phase (70% confluent) were cultivated for 3 day without estradiol and then washed with PBS, detached by trypsination and suspended in 5 ml of fresh RPMI-1640 medium. Cells were centrifuged for 5 min at 1000 rpm and the pellet was resuspended in RPMI-1640 medium.
Cells were seeded in 96-well plates with a density of 5000 cells/well/in 0.18 mL RPMI-1640 medium. Cells were allowed to attach for 24 h. Visual control for viability at 24 h and cell culture medium change. At this time point, compounds were added in 20 μl to the final concentration. After 3 days medium and compounds where changed again. Finally, 7 days after cell seeding, 20 μl MTT-solution was added to each well and 4 h later the formed tetrazolium salt was measured with a photometer.

progesterone receptor = target: T1, progesterone receptor (Homo sapiens, UniProt P06401); conditions: background statement in words; cited from earlier work
T1 sequence (P06401 1-933): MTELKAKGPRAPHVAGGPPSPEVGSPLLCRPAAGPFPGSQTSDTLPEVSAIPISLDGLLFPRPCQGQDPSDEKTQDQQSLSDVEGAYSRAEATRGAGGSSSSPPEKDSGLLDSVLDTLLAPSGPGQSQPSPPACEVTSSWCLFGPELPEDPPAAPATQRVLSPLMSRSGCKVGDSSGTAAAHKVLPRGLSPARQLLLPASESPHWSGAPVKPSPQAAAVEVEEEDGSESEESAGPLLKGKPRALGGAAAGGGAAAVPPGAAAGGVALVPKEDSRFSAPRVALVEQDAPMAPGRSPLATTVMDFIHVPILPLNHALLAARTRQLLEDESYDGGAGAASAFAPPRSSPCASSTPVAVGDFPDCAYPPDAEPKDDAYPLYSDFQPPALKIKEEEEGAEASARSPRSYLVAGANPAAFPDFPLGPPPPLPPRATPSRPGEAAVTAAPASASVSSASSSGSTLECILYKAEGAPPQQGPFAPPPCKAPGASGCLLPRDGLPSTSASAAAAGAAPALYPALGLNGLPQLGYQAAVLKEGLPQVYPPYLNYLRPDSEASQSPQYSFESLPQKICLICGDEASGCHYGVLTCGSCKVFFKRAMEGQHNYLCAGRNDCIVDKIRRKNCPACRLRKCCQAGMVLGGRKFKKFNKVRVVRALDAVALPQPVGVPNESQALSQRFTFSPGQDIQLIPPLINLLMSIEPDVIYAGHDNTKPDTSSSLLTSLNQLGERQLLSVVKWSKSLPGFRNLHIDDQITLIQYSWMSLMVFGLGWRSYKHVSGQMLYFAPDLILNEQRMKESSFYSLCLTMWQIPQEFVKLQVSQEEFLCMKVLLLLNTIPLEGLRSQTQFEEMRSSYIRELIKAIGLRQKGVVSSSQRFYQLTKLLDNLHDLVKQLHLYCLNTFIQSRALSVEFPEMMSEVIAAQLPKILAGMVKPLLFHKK

glucocorticoid receptor = target: T2, glucocorticoid receptor (Homo sapiens, UniProt P04150); conditions: background statement in words; cited from earlier work
T2 sequence (P04150 1-777): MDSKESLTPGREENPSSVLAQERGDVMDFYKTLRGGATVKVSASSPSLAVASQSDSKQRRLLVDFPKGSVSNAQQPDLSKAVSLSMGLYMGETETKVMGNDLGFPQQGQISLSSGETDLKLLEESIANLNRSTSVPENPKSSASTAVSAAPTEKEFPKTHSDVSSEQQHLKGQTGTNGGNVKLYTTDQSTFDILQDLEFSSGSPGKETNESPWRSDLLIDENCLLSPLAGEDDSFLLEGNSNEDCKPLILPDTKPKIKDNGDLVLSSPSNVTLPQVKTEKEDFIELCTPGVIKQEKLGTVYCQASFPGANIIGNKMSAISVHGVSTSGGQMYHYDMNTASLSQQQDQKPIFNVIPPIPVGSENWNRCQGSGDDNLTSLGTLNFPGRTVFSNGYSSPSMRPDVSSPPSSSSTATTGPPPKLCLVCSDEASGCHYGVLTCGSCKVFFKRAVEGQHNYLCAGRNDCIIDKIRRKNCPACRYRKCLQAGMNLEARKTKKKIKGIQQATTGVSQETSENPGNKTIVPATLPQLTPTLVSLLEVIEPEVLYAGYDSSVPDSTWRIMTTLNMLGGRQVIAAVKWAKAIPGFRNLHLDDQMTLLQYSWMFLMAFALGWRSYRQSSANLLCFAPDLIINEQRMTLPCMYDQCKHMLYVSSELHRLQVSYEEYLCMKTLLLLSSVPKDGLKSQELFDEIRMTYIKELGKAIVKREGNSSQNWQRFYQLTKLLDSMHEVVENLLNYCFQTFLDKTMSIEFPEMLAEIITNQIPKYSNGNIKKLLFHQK

[2] = target: T3, progesterone receptor-LBD-UAS-bla HEK 293T cells (Homo sapiens, UniProt P06401); assay: Progesterone Antagonist Screen (GeneBLAzer Beta-lactamase reporter, activated by control agonist R5020); format: cell-based; conditions: values relative to RU486, which is 100%; HEK 293T reporter cells, agonist R5020 at EC80
T3 construct: host or cells: HEK 293T
T3 sequence (P06401 679-913 limits assumed): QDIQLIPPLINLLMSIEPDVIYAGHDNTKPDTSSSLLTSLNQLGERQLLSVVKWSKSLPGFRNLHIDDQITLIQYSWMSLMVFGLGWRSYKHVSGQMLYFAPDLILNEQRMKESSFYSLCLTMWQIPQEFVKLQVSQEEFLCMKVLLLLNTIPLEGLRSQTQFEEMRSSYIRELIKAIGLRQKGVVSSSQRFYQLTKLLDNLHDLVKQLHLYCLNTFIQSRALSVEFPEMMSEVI
Method: Determination of the agonist/antagonist nature of the test compounds was carried out using Invitrogen's SelectScreen™ Cell-based nuclear receptor profiling service which uses the GeneBLAzer® Beta-lactamase reporter technology. Basically this assay uses a Beta-lactamase cDNA under transcriptional control of an Upstream Activator Sequence (UAS). The UAS is activated by the GAL4 transcription factor DNA binding domain (DBD), which is expressed as a fusion protein with the target receptor ligand binding domain (LBD). Upon ligand binding, the GAL4(DBD)-NR(LDB) binds to the UAS, which controls transcription of Beta-lactamase. Beta-lactamase cleaves a special engineered fluorescent substrate which results in a change in the measured fluorescence wavelength.
The generalized protocol used for the Progesterone Antagonist Screen, activated by control Agonist R5020 is as follows:
The progesterone receptor-LBD-UAS-bla HEK 293T cells are thawed and prepared as described above for the Agonist screen. 4 μL of a 10× serial dilution of control antagonist RU-486 (starting concentration, 100 nM) or test compounds are added to appropriate wells of a TC-Treated assay plate. 32 μL of cell suspension is added to the wells which is then pre-incubated at 37° C./5% CO2 in a humidified incubator with test compounds and control antagonist titration for 30 minutes. 4 μL of a 10× control agonist (see above) at the predetermined EC80 concentration is added to wells containing the control antagonist or test compounds. The plate is incubated for 16-24 hours at 37° C./5% CO2 in a humidified incubator. 8 μL of 1 μM Substrate Loading Solution is added to each well and the plate is incubated for 2 hours at room temperature. The plate is then read on a fluorescence plate reader (Tecan Safire).

[3] = system: uterine weight of non-pregnant guinea pigs; assay: Uterine weights of guinea pigs; format: in vivo; conditions: 10 mg s.c. from day 10 of cycle; sacrifice day 18; untreated guinea pig 1.2 g; higher than 1.2 g indicates pure progesterone antagonistic activity
Method: 3 Non-pregnant guinea pigs in the luteal phase of the cycle will be treated with 10 mg of the compound subcutaneously beginning on day 10 of the cycle. Animals were sacrificed on day 18 after the start of the treatment and the uterine weights were obtained at the time of sacrifice. Comparisons will be made to onapristone-treated animals at 10 mg/animal/day s.c

Row | Emax [2] | SMILES | IC50 [1] | antiprogestagenic activity / progesterone antagonism (progesterone receptor) | antiglucocorticoid effects / glucocorticoid receptor antagonism (glucocorticoid receptor) | Uterine Weights of Guinea Pigs Treated with antiprogestins (grams) [3]
1 | 81% | CC(=O)c1ccc([C@H]2C[C@@]3(C)[C@@H](CC[C@@]3(O)C(F)(F)C(F)(F)F)[C@@H]3CCC4=CC(=O)CCC4=C32)cc1 [ZK 230211, Lonaprisan, reference compound] | 0.3 nM | high antiprogestagenic activity | only marginal antiglucocorticoid effects | 
2 |  | CC#C[C@]1(O)CC[C@H]2[C@@H]3CCC4=CC(=O)CCC4=C3[C@@H](c3ccc(N(C)C)cc3)C[C@@]21C [RU 486, Mifepristone] |  | potent progesterone antagonist | overt glucocorticoid receptor antagonism | 1.81 grams
